Experimental data reported in patent US20060115815A1 (priority 2002, published 2006).
Where two headings read alike, the source gives them in different places.

Assays:
[1] = test system: wild-type HIV-1 strain IIIB; test: microbe, parasite or virus in culture; format: cell-based
[2] = test system: mutant HIV-1 with I84V/L90M mutations in the protease gene; format: cell-based
[3] = biological target: recombinant HIV-1 protease (Human immunodeficiency virus type 1 group M subtype B, UniProt P04585); test: biochemical; format: biochemical
84V90M = 84V90M (Human immunodeficiency virus type 1 group M subtype B, UniProt P04585, I572V/L578M); test: cell-based; parameters: species or system HIV-1
[4] = fold difference in EC50, mutant vs. wild type
[5] = Ki (pM), class symbols, Table 10

Structure (SMILES) | EC50 ([1]; read-out: EC50) [nM] | I84V/L90M fold change ([2]; I84V/L90M mutant) | Ki ([3]; read-out: Ki) [pM] | other results
CCOP(=O)(CCC1=CCN(CC(NC(=O)OC2COC3OCCC23)C(O)CN(CC(C)C)S(=O)(=O)c2ccc(OC)cc2)CC1)OCC (centres unmarked) | < 50 | – | – | I84V/L90M fold change [2, 4]: + (>3 to ≦10)
COc1ccc(S(=O)(=O)N(CC(C)C)CC(O)C(Cc2ccc(O)cc2)NC(=O)OC2COC3OCCC23)cc1 (centres unmarked) | < 50 | — (≦3) | – | –
CCCCOC(=O)C(C)OP(=O)(COc1ccc(C[C@H](NC(=O)O[C@H]2CO[C@H]3OCC[C@H]32)[C@H](O)CN(CC(C)C)S(=O)(=O)c2cccc(N)c2)cc1)Oc1ccccc1 (some centres unmarked) [drawing 763] | 50 to 500 | – | 10 to 100 | –
CCOC(=O)C(C)OP(=O)(COc1ccc(C[C@H](NC(=O)O[C@H]2CO[C@H]3OCC[C@H]32)[C@H](O)CN(CC(C)C)S(=O)(=O)c2ccccc2)cc1)Oc1ccccc1 (some centres unmarked) | < 50 | + (>3 to ≦10) | – | –
Cc1cccc(C)c1OCC(=O)N[C@@H](Cc1ccc(OCP(=O)(Oc2ccccc2)Oc2ccccc2)cc1)[C@H](O)CN(CC(C)C)S(=O)(=O)c1ccc(N)cc1 | < 50 | ++ (>10 to ≦30) | 100 to 1000 | –
Cc1ccc(C(=O)N[C@@H](Cc2ccc(OCP(=O)(OCc3ccccc3)OCc3ccccc3)cc2)[C@H](O)CN(CC(C)C)S(=O)(=O)c2ccc(N)cc2)cc1O | 50 to 500 | + (>3 to ≦10) | – | –
COc1ccc(S(=O)(=O)N(CC(C)C)CC(O)C(CC2=CCN(CP(=O)(O)OC(C)C(=O)O)CC2)NC(=O)OC2COC3OCCC23)cc1 (centres unmarked) | – | – | > 1000 | –
COc1ccc(S(=O)(=O)N(C[C@@H](O)[C@H](Cc2ccccc2)NC(=O)O[C@H]2CO[C@H]3OCC[C@H]32)CC(C)(C)COCP(=O)(O)O)cc1 | 500 to 5000 | +++ (>30) | – | –
CCOC(=O)C(C)OP(=O)(CCN(C)Cc1ccc(CC(NC(=O)OC2COC3OCCC23)C(O)CN(CC(C)C)S(=O)(=O)c2ccc(OC)cc2)cc1)Oc1ccccc1 (centres unmarked) [drawing 663 R1=Ph R2=Lac-Et] | – | – | – | EC50 ([1]; Human immunodeficiency virus 1, IIIB, MT2, class symbols, Table 10): 50 to 500 nM; Ki [3, 5]: 100 to 1000 pM; I84V/L90M fold change [2, 4]: + (>3 to ≦10)
CC(C)CN(C[C@@H](O)[C@H](Cc1ccc(OCP(=O)(OCc2ccccc2)OC(C)C(=O)OCc2ccccc2)cc1)NC(=O)O[C@H]1CO[C@H]2OCC[C@H]21)S(=O)(=O)c1ccc(F)cc1 (some centres unmarked) | 50 to 500 | + (>3 to ≦10) | – | –
CCOP(=O)(Cc1ccc(CC(NC(=O)OC2COC3OCCC23)C(O)CN(CC(C)C)S(=O)(=O)c2ccc(OC)cc2)cc1)OCC (centres unmarked) [drawing 654 R1=OE R2=OE] | < 50 | – | < 10 | I84V/L90M fold change [2, 4]: + (>3 to ≦10)
COC(=O)C(C)OP(=O)(COc1ccc(CC(NC(=O)OC2COC3OCCC23)C(O)CN(CC(C)C)S(=O)(=O)c2ccc(OC)cc2)cc1)Oc1ccccc1 [drawing 658 R1=OPh R2=(R)Lac-Me] | – | – | – | Ki [3, 5]: < 10 pM
Cc1ccc(C(=O)NC(Cc2ccc(OCP(=O)(O)O)cc2)C(O)CN(CC(C)C)S(=O)(=O)c2ccc(N)cc2)cc1O (centres unmarked) | – | + (>3 to ≦10) | – | –
COc1ccc(S(=O)(=O)N(CC(C)C)CC(O)C(Cc2ccc(NCP(=O)(NC(C)C(=O)OC(C)C)Oc3ccccc3)cc2)NC(=O)OC2COC3OCCC23)cc1 (centres unmarked) [drawing 705] | – | – | – | Ki [3, 5]: < 10 pM
CC(C)CN(CC(O)C(Cc1ccc(OCP(=O)(O)OC(C)C(=O)O)cc1)NC(=O)OC1COC2OCCC12)S(=O)(=O)c1ccc(CN2CCOCC2)cc1 (centres unmarked) | – | – | > 1000 | –
Nc1n[nH]c2ccc(CN3C(=O)N(Cc4cccc(OCP(=O)(Oc5ccccc5)Oc5ccccc5)c4)C(Cc4ccccc4)C(O)C(O)C3Cc3ccccc3)cc12 (centres unmarked) [m-OCH2PO3Ph2] | – | – | – | EC50 (84V90M): > 6000 nM
COc1ccc(S(=O)(=O)N(Cc2ccccc2)CC(O)C(Cc2ccccc2)NC(=O)OC2COC3OCCC23)cc1 (centres unmarked) | – | +++ (>30) | – | –
CCOC(=O)C(C)OP(=O)(COc1ccc(C[C@H](NC(=O)O[C@H]2CO[C@H]3OCC[C@H]32)[C@H](O)CN(CC(C)C)S(=O)(=O)c2ccc(F)cc2)cc1)Oc1ccccc1 (some centres unmarked) | < 50 | + (>3 to ≦10) | – | –
CC(C)CN(CC(O)C(Cc1ccc(OCP(=O)(O)OC(C)C(=O)O)cc1)NC(=O)OC1COC2OCCC12)S(=O)(=O)c1ccc(CO)cc1 (centres unmarked) | – | – | 10 to 100 | –
COc1ccc(S(=O)(=O)N(CC(C)C)CC(O)C(CN(C)Cc2ccc(P(=O)(O)OC(C)C(=O)O)cc2)NC(=O)OC2COC3OCCC23)cc1 (centres unmarked) | – | – | > 1000 | –
COc1ccc(S(=O)(=O)N(CC(C)C)C[C@@H](O)[C@H](CN2CCc3cc(OCP(=O)(O)OC(C)C(=O)O)ccc3C2)NC(=O)O[C@H]2CO[C@H]3OCC[C@H]32)cc1 (some centres unmarked) | – | – | 100 to 1000 | –
CCOP(=O)(CN1CC=C(CC(NC(=O)OC2COC3OCCC23)C(O)CN(CC(C)C)S(=O)(=O)c2ccc(OC)cc2)CC1)OCC (centres unmarked) | – | – | – | I84V/L90M fold change [2, 4]: + (>3 to ≦10)
Cc1cccc(C)c1OCC(=O)NC(Cc1ccc(OCP(=O)(O)O)cc1)C(O)CN(CC(C)C)S(=O)(=O)c1ccc(N)cc1 (centres unmarked) | – | + (>3 to ≦10) | – | –
COc1ccc(S(=O)(=O)N(CCN(C)C)CC(O)C(Cc2ccc(OCc3ccccc3)cc2)NC(=O)OC2COC3OCCC23)cc1 (centres unmarked) | – | — (≦3) | – | –
